# Results taken from patent publication US20050201991A1, “Stem cell culture” (priority 2002, published 2005).
# Tested on: NTERA2 human EC cells
# Assay: Two fluorochrome flow cytometric analysis of FGF-4 reporter with SSEA-3 labelling on differentiation
# Type: cell-based
# Conditions: retinoic acid treated versus undifferentiated NTERA2 cells
# Description: Variations of these vectors including pTK-GFP, p5FGF4EN-GFP and p5FGF4EN-Bact-GFP with WES site linking an antibiotic selection marker, for example puromycin or neonmycin resistance, to the expression of GFP were also created (IRESantibiotic selection marker sequences were inserted in the Notl cloning site immediately 3′ to the GFP sequence).
# The human embryonal carcinoma (EC) cell line, NTERA2 cl D1, was cultured in DMEM with 10% fetal calf serum as previously described (Andrews et al 1984). […]
# Human EC and ES cells were transfected by the same protocol: After incubation at 37° C. overnight the cells were transfected, following the manufacturer's protocol, as follows: 9.5 μg DNA was diluted into 300 μl 0.15 M NaCl and mixed with 21 μl ExGen 500 (MBI Fermentas) and vortexed. […] After incubating for 6-12 hours at 37 C, the medium was removed and the cells fed with fresh medium and fluorescence observed by microscopy under UV epi-illumination.
# Cell surface antigen expression of cultured cells was assessed by indirect immunofluorescence detected by flow cytofluorimetry, after harvesting the cultures as single cell suspensions using trypsin-EDTA, as described previously (Andrews et al 1987, Fenderson et al 1987). […] In some experiments, cells that were either positive or negative for SSEA3 and SSEA1 were isolated by fluorescence activated cell sorting (Andrews et al 1987).
smiles,measurement,setting,value
"CC1=C(/C=C/C(C)=C/C=C/C(C)=C/C(=O)O)C(C)(C)CCC1 [retenoic acid, all-trans-retinoic acid]",GFP expression from FGF-4 reporter,p5FGF4EN-GFPIP reporter,greatly reduced
same,SSEA-3 expression,,reduction
